Measured values taken from patent US20140121164A1, “PREVENTION OF KIDNEY INJURY OR DISEASE” (University of Florida Research Foundation, priority 2012, published 2014).
“Also recorded” adds a separate entry of the source.

Columns and labels:
[1] = tested on: patients undergoing cardiac surgery; assay: Prevention of AKI by different dosage regimes of AP214 in patients undergoing cardiac surgery (CS005 protocol); type: in vivo, human
Experimental: Each of 12 patients undergoing cardiac surgery (the AP214 group) was dosed with 600 μg/kg AP214: 200 μg/kg at skin incision, 200 μg/kg at cross clamp release, and 200 μg/kg 6-hour after cross clamp release. Each dosage was provided over a period of 10 minutes. The placebo group included 13 patients undergoing cardiac surgery without AP214 infusion.
Objectives • trial objective was to assess the effect of AP214 on • 1) changes in serum creatinine, cystatin-C and carbamade, • 2) on eGFR and • 3) on the development of post-surgical acute kidney injury (AKI) • AKI also assessed (post-hoc analysis) by AKIN and RIFLE
Three different definitions of AKI were tested: • 1) 3 patients in the AP214 group developed AKI, in contrast to 7 patients in the placebo group who developed AKI. AKI is defined as in the CS005 protocol: • An absolute increase in serum creatinine of more than or equal to 26.4 μmol/l (0.3 mg/dl) or • A percentage increase in serum creatinine of more than or equal to 50% (1.5-fold from baseline) from Day 0-14 and/or • Urine output less than 0.5 mL/kg per hour for more than 6 hours. • 2) AKI according to the AKIN score as presented in FIG. 3a, and • 3) AKI according to the RIFLE score as presented in FIG. 3b.

[2] = tested on: pigs after induction of complete warm ischemia in the kidney; conditions: 200 μg/kg, 10 ml i.v. bolus during 1 minute, seven doses; cited from earlier work
subjects = assay: Evaluation of rate of infusion of AP214 (CS002); type: in vivo, human
Experimental: To establish a suitable rate of infusion of AP214 a set of patient trials were performed.
AP214 isotonic solution single ascending doses (25, 50 and 100 μg/kg) for intravenous infusion administered over 10 minutes, or placebo (saline infusion).
AP214 isotonic solution single doses (100 μg/kg over 1 minute; 100 μg/kg over 30 seconds; 200 μg/kg over 30 seconds) for intravenous infusion.

[3] = tested on: patients undergoing cardiac surgery on cardiopulmonary bypass (CPB); assay: CS007 trial: short and long term efficacy signals and safety of AP214 in patients undergoing cardiac surgery on cardiopulmonary bypass; type: in vivo, human; conditions: for average serum creatinine values over time: through 168 hours post surgery; for outcomes as measured by the composite endpoint (all cause death, RRT, kidney function): 90 day post-operative period, vs placebo; for population distribution of extreme serum creatinine values: highest quartile; for kidney function as measured by estimated GFR: seven day post-operative period
From the text: The CS007 trial was designed to study both short and long term efficacy signals (FIG. 5).
Primary Aims • Safety: Safety and tolerability vs. placebo • Efficacy: Max post-operative change in absolute values of SCr compared to baseline within the first 7 days after surgery or until discharge from hospital, whichever comes first vs. placebo.
Secondary Aims • Composite: • Assess the proportion of patients reaching the composite endpoint of death, need for RRT or a 25% reduction in renal function over a 90 day post-operative period vs. placebo. • AKIN: Assess post-operative incidence of AKI within 48 hours post-surgery • RIFLE: Assess post-operative incidence of AKI within first 7 days post-surgery. • SCr: Changes between surgery and postoperative day 7. • GFR: Changes at day 90 compared to baseline. • eGFR: Changes between surgery and postoperative day 7
Each dosage was provided over a period of 10 minutes. As used throughout this disclosure and unless specified otherwise, “μg/kg” refers to μg AP214 per kg bodyweight of the patient being treated.
Moreover, in the same double-blind study described in this Example, patients undergoing cardiac surgery on cardiopulmonary bypass (CPB) were randomized to placebo (PBO; n=26), AP214 given at either 600 μg/kg (n=25), or 800 μg/kg (n=26), divided into 3 bolus infusions at the predetermined intervals as described above. AKI was determined according to AKIN and RIFLE scores.

[4] = 600 μg/kg bodyweight (3×200 μg/kg), i.v. over 10 min each, vs placebo
[5] = 600 μg/kg bodyweight, vs placebo

In the case of `CSCC[C@H](NC(=O)[C@H](CO)NC(=O)[C@H](Cc1ccc(O)cc1)NC(=O)[C@H](CO)NC(=O)[C@H](CCCCN)NC(=O)[C@H](CCCCN)NC(=O)[C@H](CCCCN)NC(=O)[C@H](CCCCN)NC(=O)[C@H](CCCCN)NC(=O)[C@H](CCCCN)NC(C)=O)C(=O)N[C@@H](CCC(=O)O)C(=O)N[C@@H](Cc1c[nH]cn1)C(=O)N[C@@H](Cc1ccccc1)C(=O)N[C@@H](CCCNC(=N)N)C(=O)N[C@@H](Cc1c[nH]c2ccccc12)C(=O)NCC(=O)N[C@@H](CCCCN)C(=O)N1CCC[C@H]1C(=O)N[C@H](C(N)=O)C(C)C` [AP214, Acetyl-Lysyl-L-lysyl-L-lysyl-L-lysyl-L-lysyl-L-lysyl-L-seryl-L-tyrosyl-L-seryl-L-methionyl-Lglutamyl-L-histidyl-L-phenylalanyl-L-arginyl-L-tryptophanyl-glycyl-L-lysyl-L-prolyl-L-valine amide], the “prevention of AKI as compared to the placebo” value ([1]; 150 μg/kg bodyweight (3×50 μg/kg), same dosing scheme) was “showed no prevention of AKI”, the “patients who developed AKI (AKI as defined in the CS005 protocol)” value ([1]; 600 μg/kg (3×200 μg/kg), AP214 group of 12 patients, Day 0-14) was 3 patients and the “development of AKI according to the RIFLE score and AKIN scores” value ([1]; 600 μg/kg bodyweight (3×200 μg/kg)) was “demonstrated prevention in the development of AKI”. For the same compound, the “decrease in eGFR” value [1, 4] was “prevented a decrease in eGFR”, the “increase in serum creatinine” value [1, 4] was “prevented” and the increase in carbamide [1, 5] was “prevented”. For the same compound, the “increase in cystatin C” value [1, 5] was “prevented an increase in cystatin C”, the renoprotective effect [2] was “provides a renoprotective effect” and the “adverse events relative to 100 μg/kg over 30 sec and 1 minute” value (subjects; 200 μg/kg over 30 seconds) was “more adverse events”. The subjects reporting erythema (subjects; Group 2 (n=6), short infusion times) was 6 subjects, the adverse events (subjects; Group 2 (n=6), short infusion times: 100 μg/kg over 1 minute, 100 μg/kg over 30 seconds, 200 μg/kg over 30 seconds, i.v.) was “large number of adverse events” and the “episodes of vomiting in one subject” value (subjects; Group 2, short infusion times) was 8 episodes. The tolerability (subjects; fast infusion rates) was “not well tolerated”, the adverse effects (subjects; slower infusion rate, 100 μg/kg over 10 minutes) was “did not show these adverse effects” and the tolerability (subjects; slower infusion rates (e.g., 10 minutes)) was “better tolerated”. The “average serum creatinine values over time” value ([3]; 600 μg/kg (3×200 μg/kg)) was “decreased average serum creatinine; also recorded: decreasing average serum creatinine values over time”, the “outcomes as measured by the composite endpoint (all cause death, RRT, kidney function)” value ([3]; 600 μg/kg) was “reduction in outcomes with the 600 μg/kg dosage showing statistical significance; also recorded: reduction in negative outcomes” and the “population distribution of extreme serum creatinine values” ([3]; 600 μg/kg) was “reduction in serum creatinine values at the highest quartile”. For the same compound, the “kidney function as measured by estimated GFR” value ([3]; 600 μg/kg) was “increased kidney function”, the “degrees of acute kidney injury compared to placebo” value ([3]; 800 μg/kg) was “lesser degrees of acute kidney injury” and the “patients scored as AKI by AKIN and RIFLE criteria” value ([3]; 800 μg/kg) was “decrease in patients scored as AKI”. The “average serum creatinine values over time” value ([3]; 800 μg/kg (1×200, 1×400, 1×200 μg/kg)) was “decreased average serum creatinine; also recorded: decreasing average serum creatinine values over time”, the “GFR change (reduction) at Day 90 compared to baseline” value ([3]; 800 μg/kg vs. placebo, Danish sites only) was “significantly lower GFR change (reduction)” and the “outcomes as measured by the composite endpoint (all cause death, RRT, kidney function)” value ([3]; 800 μg/kg) was “reduction in negative outcomes”. The “incidence of AKI compared with PBO by surgery type” value ([3]; 800 μg/kg, combined CABG and valve surgery, multiple valve surgery, chronic kidney disease and CABG (or valve surgery)) was “numerically lower incidence of AKI”, the “population distribution of extreme serum creatinine values” ([3]; 800 μg/kg) was “reduction in serum creatinine values at the highest quartile” and the “kidney function as measured by estimated GFR” value ([3]; 800 μg/kg) was “increased kidney function”. The safety and tolerability ([3]; 600 and 800 μg/kg, each dosage over 10 minutes) was “safe and well tolerated”.
